Where two headings read alike, the source gives them in different places.
Assays:
[1] = target: T1, Recombinant human COMT (Homo sapiens, UniProt P21964); experiment: COMT inhibitory assay (3-BTD fluorescent substrate); assay type: biochemical
T1 construct: made in house
T1 sequence (P21964 1-271): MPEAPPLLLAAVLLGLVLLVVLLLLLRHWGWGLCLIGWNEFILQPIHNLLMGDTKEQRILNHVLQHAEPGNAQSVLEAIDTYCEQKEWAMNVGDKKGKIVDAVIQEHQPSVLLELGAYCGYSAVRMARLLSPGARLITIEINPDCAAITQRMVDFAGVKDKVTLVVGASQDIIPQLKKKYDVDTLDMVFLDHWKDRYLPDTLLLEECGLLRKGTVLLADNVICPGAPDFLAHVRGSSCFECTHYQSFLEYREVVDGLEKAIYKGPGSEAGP

[2] = cited from earlier work
[3] = 1 µM COMT, 200 µM SAM, 20 µM 3-BTD, 0–100 µM inhibitor, pH 7.5, 37 °C, read-out: COMT inhibitory activities (IC50)

SMILES	IC50 [1, 3] [µM]	further results
COc1cc(-c2oc3cc(O)cc(O)c3c(=O)c2O[C@@H]2O[C@H](COC(=O)CC(=O)O)[C@@H](O)[C@H](O)[C@H]2O)ccc1O [Compound 7, isorhamnetin 3-O-(6″-O-malonyl)-β-glucoside]	> 100	–
CC1OC(OC2C(Oc3c(-c4ccc(O)c(O)c4)oc4cc(O)cc(O)c4c3=O)OC(CO)C(O)C2O)C(O)C(O)C1O (stereo not drawn) [Compound 3, quercetin 3-O-β-neohesperidoside]	–	IC50 [1]: 71 µM
O=C(O)CC(=O)OC[C@H]1O[C@@H](Oc2c(-c3ccc(O)c(O)c3)oc3cc(O)cc(O)c3c2=O)[C@H](O)[C@@H](O)[C@@H]1O [Compound 5, quercetin 3-O-(6″-O-malonyl)-β-glucoside]	59	–
O=C(/C=C/c1ccc(O)c(O)c1)O[C@@H]1C[C@](O)(C(=O)O)C[C@@H](O)[C@H]1O [Compound 8, chlorogenic acid]	100	–
COc1cc(-c2oc3cc(O)cc(O)c3c(=O)c2O[C@@H]2O[C@H](CO)[C@@H](O)[C@H](O)[C@H]2O)ccc1O [Compound 2, isorhamnetin 3-O-β-glucoside]	55	–
Cc1ccc(C(=O)c2cc(O)c(O)c([N+](=O)[O-])c2)cc1 [Tolcapone]	–	hepatotoxicity [2]: severe hepatotoxicity
O=C(C=Cc1ccc(O)c(O)c1)OC1CC(O)(C(=O)O)CC(O)C1OC(=O)C=Cc1ccc(O)c(O)c1 (centres unmarked) [Compound 9, 3,4-dicaffeoylquinic acid]	21	COMT inhibitory activity (in words) ([1]; isolated compounds 1–10 compared): highest inhibitory activity
CC1OC(OC2C(Oc3c(-c4ccc(O)c(O)c4)oc4cc(O)cc(O)c4c3=O)OC(COC(=O)CC(=O)O)C(O)C2O)C(O)C(O)C1O (stereo not drawn) [Compound 4, quercetin 3-O-(2″-O-α-rhamnosyl-6″-O-malonyl)-β-glucoside]	65	–
COC(=O)CC(=O)OC[C@H]1O[C@@H](Oc2c(-c3ccc(O)c(O)c3)oc3cc(O)cc(O)c3c2=O)[C@H](O)[C@@H](O)[C@@H]1O [Compound 6]	42	–
COc1cc(C(=O)O)cc(OC)c1O [Compound 10, syringic acid]	> 100	–

Source: paper PMC9919311, “Catechol-O-methyltransferase Inhibitors from Calendula officinalis Leaf” (Molecules, 2023)
